Experimental data published in ChEMBL document CHEMBL2203037, “Synthesis and Anti-influenza A Virus Activity of 2,2-Dialkylamantadines and Related Compounds” (ACS Med Chem Lett, 2012).
The source made the active and inactive calls. The calls are words filed in the database; no cut-off is given here.

What was measured:
[1] = Cytotoxicity against dog MDCK cells assessed as cell viability after 72 hrs by MTS assay; assay type: cell-based, Canis lupus familiaris
[2] = Cytotoxicity against dog MDCK cells assessed as cell morphology alterations; assay type: cell-based, Canis lupus familiaris
[3] = system: Mammalian orthoreovirus 1; assay: Antiviral activity against Reovirus-1 by cell based assay; assay type: functional, organism-based
[4] = system: Coxsackievirus B4; assay: Antiviral activity against Coxsackievirus B4 by cell based assay; assay type: functional, organism-based
[5] = system: Punta Toro virus; assay: Antiviral activity against Punta Toro virus by cell based assay; assay type: functional, organism-based
[6] = system: Sindbis virus; assay: Antiviral activity against Sindbis virus by cell based assay; assay type: functional, organism-based
[7] = system: Vesicular stomatitis virus; assay: Antiviral activity against Vesicular stomatitis virus by cell based assay; assay type: functional, organism-based
[8] = system: Human respirovirus 3; assay: Antiviral activity against Parainfluenza-3 virus by cell based assay; assay type: functional, organism-based
[9] = system: Respiratory syncytial virus; assay: Antiviral activity against Respiratory syncytial virus by cell based assay; assay type: functional, organism-based
[10] = system: Feline coronavirus; assay: Antiviral activity against Feline coronavirus by cell based assay; assay type: functional, organism-based
[11] = system: Vaccinia virus; assay: Antiviral activity against Vaccinia virus by cell based assay; assay type: functional, organism-based; settings: Orthopoxvirus vaccinia
[12] = system: Simplexvirus; assay: Antiviral activity against Herpes simplex virus by cell based assay; assay type: functional, organism-based
[13] = system: H3N2 subtype; assay: Antiviral activity against Influenza A virus (A/HK/7/87 (H3N2)) infected in MDCK cells assessed as virus-induced cytopathic effect by MTS assay; assay type: functional, organism-based, A/Hong Kong/7/1987(H3N2)
[14] = system: H3N2 subtype; assay: Antiviral activity against Influenza A virus (A/HK/7/87 (H3N2)) infected in MDCK cells assessed as virus-induced cytopathic effect measured 3 days post infection by microscopic analysis; assay type: functional, organism-based; settings: A/Hong Kong/7/1987(H3N2), 72 h
[15] = system: Influenza A virus; assay: Antiviral activity against Influenza A virus (A/X-31(H3N2)) infected in MDCK cells assessed as virus-induced cytopathic effect measured 3 days post infection by microscopic analysis; assay type: functional, organism-based
[16] = system: Influenza A virus; assay: Antiviral activity against Influenza A virus (A/Ishikawa/7/82 (H3N2)) infected in MDCK cells assessed as virus-induced cytopathic effect measured 3 days post infection by microscopic analysis; assay type: functional, organism-based
[17] = system: Influenza A virus; assay: Antiviral activity against amantadine-sensitive Influenza A virus (A/FM/1/47 (H1N1)) infected in MDCK cells assessed as virus-induced cytopathic effect measured 3 days post infection by microscopic analysis; assay type: functional, organism-based; settings: A/Fort Monmouth/1/1947(H1N1), 72 h
[18] = system: Influenza A virus; assay: Antiviral activity against amantadine-sensitive Influenza A virus (A/Ned/378/05 (H1N1)) infected in MDCK cells assessed as virus-induced cytopathic effect measured 3 days post infection by microscopic analysis; assay type: functional, organism-based; settings: 72 h
[19] = Influenza A virus, A/Hong Kong/7/1987(H3N2), MDCK
[20] = Influenza A virus, A/Ishikawa/7/82 (H3N2), MDCK, 72 h

Row | SMILES | CC50 at 72 h [1] | MCC [2] | Activity [3] | Activity [4] | Activity [5] | Activity [6] | Activity [7] | Activity [8] | Activity [9] | Activity [10] | Activity [11] | Activity [12] | EC50 [13, 19] | EC50 [14] | EC50 [17] | other results
1 | CC1(C)C2CC3CC(C2)CC1(N)C3 | 77 µM | 167 µM | inactive | inactive | inactive | inactive | inactive | inactive | inactive | inactive | inactive | inactive | > 100 µM | > 100 µM |  | 
2 | CCC1(CC)C2CC3CC(C2)CC1(N(C)C)C3 | > 100 µM | ≥ 100 µM | inactive | inactive | inactive | inactive | inactive | inactive | inactive | inactive | inactive | inactive |  | > 100 µM | 43 µM | EC50 ([15]; Influenza A virus, MDCK, 72 h): > 100 µM; EC50 [16, 20]: > 100 µM; EC50 [18]: 23000 nM; EC50 ([13]; mdck): > 100 µM
3 | CN(C)C12CC3(C)CC(CC3(C)C1)C2(C)C | > 100 µM | ≥ 100 µM | inactive | inactive | inactive | inactive | inactive | inactive | inactive | inactive | inactive | inactive | > 100 µM | > 100 µM |  | 
4 | CN(Cc1ccccc1)C12CC3CC(CC(C3)C1(C)C)C2 | 0.7 µM | 4 µM | inactive | inactive | inactive | inactive | inactive | inactive | inactive | inactive | inactive | inactive | > 100 µM | > 100 µM |  | 
5 | CCOC(=O)C1=C[C@@H](OC(CC)CC)[C@H](NC(C)=O)[C@@H](N)C1 [OSELTAMIVIR] |  | > 100 µM |  |  |  |  |  |  |  |  |  |  |  | 29 µM | 16 µM | EC50 ([15]; Influenza A virus, MDCK, 72 h): 0.11 µM; EC50 [16, 20]: 3 µM; EC50 [18]: 1500 nM
6 | NC12CC3CC(CC(C3)C13CCCCC3)C2 | 4.7 µM | 6 µM | inactive | inactive | inactive | inactive | inactive | inactive | inactive | inactive | inactive | inactive | > 100 µM | > 100 µM |  | 
7 | CC(C)C1C2CC3CC(C2)CC1(N(C)C)C3 (configuration not stated) | ≥ 100 µM | > 100 µM | inactive | inactive | inactive | inactive | inactive | inactive | inactive | inactive | inactive | inactive | > 100 µM | > 100 µM |  | 
8 | CN(C)C12CC3CC(CC(C3)C1(C)C)C2 | 68 µM | 110 µM | inactive | inactive | inactive | inactive | inactive | inactive | inactive | inactive | inactive | inactive | > 100 µM | > 100 µM |  | 
9 | CC(C)C1C2CC3CC(C2)CC1(N)C3 (configuration not stated) | 8.6 µM | 5.3 µM | inactive | inactive | inactive | inactive | inactive | inactive | inactive | inactive | inactive | inactive | > 100 µM | > 100 µM |  | 
10 | CCNC12CC3CC(CC(C3)C1(C)C)C2 | 85 µM | 200 µM | inactive | inactive | inactive | inactive | inactive | inactive | inactive | inactive | inactive | inactive | > 100 µM | > 100 µM |  | 
11 | NC(=O)c1ncn([C@@H]2O[C@H](CO)[C@@H](O)[C@H]2O)n1 [RIBAVIRIN] | ≥ 20 µM | ≥ 100 µM |  |  |  |  |  |  |  |  |  |  | 7 µM | 7.7 µM | 10 µM | EC50 ([15]; mdck): 8.8 µM; EC50 ([16]; mdck): 8.8 µM; EC50 [18]: 7600 nM
12 | CNC12CC3CC(CC(C3)C1(C)C)C2 | 70 µM | 110 µM | inactive | inactive | inactive | inactive | inactive | inactive | inactive | inactive | inactive | inactive | > 100 µM | > 100 µM |  | 
13 | CC(=O)N[C@H]1[C@H]([C@H](O)[C@H](O)CO)OC(C(=O)O)=C[C@@H]1NC(=N)N [ZANAMIVIR] |  | > 200 µM |  |  |  |  |  |  |  |  |  |  |  | 1.2 µM | 5 µM | EC50 ([15]; mdck): 0.16 µM; EC50 [16, 20]: 8.7 µM; EC50 [18]: 1700 nM
14 | CCCC1(CCC)C2CC3CC(C2)CC1(N(C)C)C3 | > 100 µM | ≥ 100 µM | inactive | inactive | inactive | inactive | inactive | inactive | inactive | inactive | inactive | inactive | > 100 µM | > 100 µM |  | 
15 | CC1(C)C2CC3CC(C2)CC1(NCc1ccccc1)C3 | 1.1 µM | 4 µM | inactive | inactive | inactive | inactive | inactive | inactive | inactive | inactive | inactive | inactive | > 100 µM | > 100 µM |  | 
16 | CC1(C)C2CC3CC(C2)CC1(N1CCCCC1)C3 | 0.8 µM | 4 µM | inactive | inactive | inactive | inactive | inactive | inactive | inactive | inactive | inactive | inactive | > 100 µM | > 100 µM |  | 
17 | CC12CC3CC1(C)CC(N)(C2)C3(C)C | > 100 µM | ≥ 100 µM | inactive | inactive | inactive | inactive | inactive | inactive | inactive | inactive | inactive | inactive | > 100 µM | > 100 µM |  | 
18 | CC(N)C12CC3CC(CC(C3)C1)C2 (configuration not stated) [RIMANTADINE] | > 100 µM | ≥ 100 µM |  |  |  |  |  |  |  |  |  |  |  | 0.17 µM | 1.9 µM | EC50 ([15]; mdck): 7 µM; EC50 [16, 20]: 0.45 µM; EC50 [18]: 500 nM
19 | CCCC1(CCC)C2CC3CC(C2)CC1(N)C3 | 2.9 µM | 6 µM | inactive | inactive | inactive | inactive | inactive | inactive | inactive | inactive | inactive | inactive | > 100 µM | > 100 µM |  | 
20 | NC12CC3CC(CC(C3)C1)C2 [AMANTADINE] | > 100 µM | 500 µM |  |  |  |  |  |  |  |  |  |  |  | 3.4 µM | 5.1 µM | EC50 ([15]; mdck): 61 µM; EC50 [16, 20]: 11 µM
